For three compounds, EC50, IC50 and EC90 results are on record in publication doi:10.1101/2022.10.06.511132v1, “Development of Enterovirus anti-viral agents that target the viral 2C protein” (biorxiv, 2022).

In assay [1] the test system is EV-68 (EV-D68). Kind of assay: microbe, parasite or virus in culture. To be noted: Enterovirus D, read-out: EC50 µM, EV-68 neutral red. Set-up: NIAID secondary assay, neutral red cytopathic effect reduction.
For assay [2], the system named is EV-A71. The experiment in a line: microbe, parasite or virus in culture. Set-up: NIAID secondary assay, neutral red cytopathic effect reduction. To be noted: Enterovirus A, EV71 / EVA71, read-out: EC50 µM, EV-71 neutral red.
The target in another assay is T1, EV-A71 Δ2C^116-329 (Enterovirus A71, UniProt B9VUU3).
T1 construct: N-terminally truncated mature protein 2C residues 116-329, cut from the genome polyprotein; N-terminal MBP tag and C-terminal His6 (kept, MBP-Δ2C-(His)6); codon-optimised synthetic gene in pMALc5x, E. coli Rosetta 2(DE3) pLysS; active as hexamer
Kind of assay: malachite green ATPase assay. The format is biochemical.

Assay [3] deals with EV-A71. The experiment in a line: microbe, parasite or virus in culture. The following applies: Enterovirus A, EV71 / EVA71, read-out: EC90 µM, EV-71 VYR. Set-up: NIAID secondary assay, virus yield reduction, visual titre.
For assay [4], the system named is EV-68 (EV-D68). Kind of assay: microbe, parasite or virus in culture. Set-up: NIAID secondary assay, virus yield reduction, visual titre. To be noted: Enterovirus D, read-out: EC90 µM, EV-68 VYR.

T1 sequence (B9VUU3 1227-1440, stated change not applied): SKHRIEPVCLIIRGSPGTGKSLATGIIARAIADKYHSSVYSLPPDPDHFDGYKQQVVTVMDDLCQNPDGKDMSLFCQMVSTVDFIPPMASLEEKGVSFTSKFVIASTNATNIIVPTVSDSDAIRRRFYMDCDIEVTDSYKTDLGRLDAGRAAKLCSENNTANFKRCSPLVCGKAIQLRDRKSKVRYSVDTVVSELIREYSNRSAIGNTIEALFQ

As usually defined, the EC50 is the midpoint of the concentration-response curve. As usually defined, the IC50 is the midpoint of a concentration-inhibition curve. The low end stands for greater potency in that assay, the high end for weaker potency in that assay. A word on the EC90: it is the concentration at which the effect reaches the 90% level. `Cc1ccc2[nH]c(-c3ccc(NC(=O)c4cccs4)cc3)nc2c1` [SJW-2C-227]: the figures for the EC50 in the assay on EV-68 (EV-D68) [1] and in the assay with EV-A71 [2] were 0.52 µM and 1.7 µM, respectively. The IC50 on EV-A71 Δ2C^116-329 amounted to 23.4 µM. Moreover, the concentration for an effect of 90% (EC90) in the assay with EV-A71 [3] worked out at 3.2 µM; in the assay on EV-68 (EV-D68) [4], 0.59 µM.
`Cc1ccc2[nH]c(-c3ccc(NC(=O)c4ccc(C)c(C)c4)cc3)nc2c1` [SJW-2C-234] gave a concentration for half-maximal inhibition (IC50) against EV-A71 Δ2C^116-329 of 55 µM.
On the same count and under the same terms, for `O=C(Nc1ccc(-c2nc3cc4ccccc4cc3[nH]2)cc1)c1cccc(Br)c1` [SJW-2C-239] the value was 33.1 µM.
